Data as given in patent EP0908457B1, “3-(1,2-benzisothiazol- and isoxazol-5-Y1)-2,4(1H,3H)-pyrimidinedione or thione and 3-(1,2-benzisothiazol- and isoxazol-5-y1)-4(3H)-pyrimidinone or thione herbicidal agents” (BASF AKTIENGESELLSCHAFT, priority 1997, dated 1999).

Legend:
Format in all cases: in vivo
[1] = test system: Echinochloa oryzoides (Ard.) Fritsch.; assay: Preemergence weed control under flooded paddy conditions, ECHORC (Watergrass (Calif.)); details: preemergence, flooded paddy, rated three to four weeks after treatment
Cyperus iria = assay: Preemergence weed control under flooded paddy conditions, CYPIR (Rice Flatsedge); details: preemergence, flooded paddy, rated three to four weeks after treatment
[2] = test system: Cyperus serotinus, Rottb.; assay: Preemergence weed control under flooded paddy conditions, CYPSE (Flatsedge); details: preemergence, rated three to four weeks after treatment
[3] = test system: Monochoria vaginalis, Presl.; assay: Preemergence weed control under flooded paddy conditions, MOOVA (Monochoria); details: preemergence, flooded paddy, rated three to four weeks after treatment
Sagittaria pygmaea, L. = assay: Preemergence weed control under flooded paddy conditions, SAGPY (Arrowhead (Pygmaea)); details: preemergence, flooded paddy, rated three to four weeks after treatment
Further: meaning of each grade not given here.

Compound | herbicidal effect rating, ECHORC ([1]; Rate 0.0320 kg/ha) | herbicidal effect rating, ECHORC ([1]; Rate 0.0620 kg/ha) | herbicidal effect rating, ECHORC ([1]; Rate 0.1250 kg/ha) | herbicidal effect rating, ECHORC ([1]; Rate 0.2500 kg/ha) | herbicidal effect rating, CYPIR (Cyperus iria; Rate 0.0320 kg/ha) | herbicidal effect rating, CYPIR (Cyperus iria; Rate 0.0620 kg/ha) | herbicidal effect rating, CYPIR (Cyperus iria; Rate 0.1250 kg/ha) | herbicidal effect rating, CYPIR (Cyperus iria; Rate 0.2500 kg/ha) | herbicidal effect rating, CYPSE ([2]; Rate 0.0320 kg/ha) | herbicidal effect rating, CYPSE ([2]; Rate 0.1250 kg/ha) | herbicidal effect rating, CYPSE ([2]; Rate 0.2500 kg/ha) | herbicidal effect rating, MOOVA ([3]; Rate 0.0320 kg/ha) | herbicidal effect rating, MOOVA ([3]; Rate 0.0620 kg/ha) | herbicidal effect rating, MOOVA ([3]; Rate 0.1250 kg/ha) | herbicidal effect rating, MOOVA ([3]; Rate 0.2500 kg/ha) | herbicidal effect rating, SAGPY (Sagittaria pygmaea, L.; Rate 0.0320 kg/ha) | herbicidal effect rating, SAGPY (Sagittaria pygmaea, L.; Rate 0.0620 kg/ha) | herbicidal effect rating, SAGPY (Sagittaria pygmaea, L.; Rate 0.1250 kg/ha) | herbicidal effect rating, SAGPY (Sagittaria pygmaea, L.; Rate 0.2500 kg/ha) | herbicidal effect rating, CYPSE ([2]; Rate 0.0620 kg/ha)
COc1ccc(COC(=O)C(C)(C)c2nsc3ccc(-n4c(=O)cc(C(F)(F)F)n(C)c4=O)cc23)cc1 [Example 397, 1,2-Benzisothiazole-3-acetic acid, 5-[3,6-dihydro-3-methyl-2,6-dioxo-4-(trifluoromethyl)-1(2H)-pyrimidinyl]-alpha,alpha-dimethyl-, p-methoxybenzyl ester] | 9.0 | 9.0 | 9.0 | 9.0 | 6.0 | 7.0 | 9.0 | 9.0 | 0.0 | 0.0 | 0.0 | 9.0 | 9.0 | 9.0 | 9.0 | 4.0 | 5.0 | 5.0 | 5.0 | –
CN(O)C(=O)c1nsc2ccc(-n3c(=O)cc(C(F)(F)F)n(C)c3=O)cc12 [Example 398, 1,2-Benzisothiazole-3-carbohydroxamic acid, 5-[3,6-dihydro-3-methyl-2,6-dioxo-4-(trifluoromethyl)-1(2H)-pyrimidinyl]-N-methyl-] | 0.0 | 2.0 | 3.0 | 8.0 | 0.0 | 3.0 | 6.0 | 8.0 | 0.0 | 3.0 | 3.0 | 6.0 | 9.0 | 9.0 | 9.0 | 0.0 | 0.0 | 0.0 | 3.0 | 0.0
C=CCONC(=O)c1nsc2ccc(-n3c(=O)cc(C(F)(F)F)n(C)c3=O)cc12 [Example 399, 1,2-Benzisothiazole-3-carboxamide, N-(allyloxy)-5-[3,6-dihydro-3-methyl-2,6-dioxo-4-(trifluoromethyl)-1(2H)-pyrimidinyl]-] | 0.0 | 0.0 | 2.0 | 3.0 | 0.0 | 2.0 | 7.0 | 8.0 | 0.0 | 0.0 | 0.0 | 6.0 | 7.0 | 8.0 | 9.0 | 0.0 | 0.0 | 0.0 | 0.0 | 0.0
Cn1c(C(F)(F)F)cc(=O)n(-c2ccc3snc(C(=O)NOCc4ccccc4)c3c2)c1=O [Example 400, 1,2-Benzisothiazole-3-carboxamide, N-(benzyloxy)-5-[3,6-dihydro-3-methyl-2,6-dioxo-4-(trifluoromethyl)-1(2H)-pyrimidinyl]-] | 0.0 | 0.0 | 0.0 | 0.0 | 3.0 | 3.0 | 9.0 | 9.0 | 0.0 | 0.0 | 0.0 | 6.0 | 7.0 | 7.0 | 9.0 | 0.0 | 0.0 | 0.0 | 0.0 | 0.0
